Where only a bound is given, the exact number is not on record here.

One may read the IC50 as the concentration that inhibits the measured activity by half. A low value points to higher potency.

This assay has as its target Squalene synthase (Candida albicans). Nature of the assay: Inhibition of Candida albicans squalene synthase(SQS).
In the case of `C=C(CC[C@]12O[C@H](C(=O)O)[C@@](O)(C(=O)O)[C@](C(=O)O)(O1)[C@H](O)[C@H]2OC(=O)CCCCCCC)[C@@H](OC(C)=O)[C@H](C)Cc1ccccc1` [(1S,3S,4S,5R,6R,7R)-1-((4S,5R)-4-Acetoxy-5-methyl-3-methylene-6-phenyl-hexyl)-4,6-dihydroxy-7-octanoyloxy-2,8-dioxa-bicyclo[3.2.1]octane-3,4,5-tricarboxylic acid], the IC50 is over 200 nM. The same measure for `C=C(CC[C@]12O[C@H](C(=O)O)[C@@](O)(C(=O)O)[C@](C(=O)O)(O1)[C@H](OC(=O)CCCCCCC)[C@H]2OC(=O)CCCCCCC)[C@@H](OC(C)=O)[C@H](C)Cc1ccccc1` [(1S,3S,4S,5R,6R,7R)-1-((4S,5R)-4-Acetoxy-5-methyl-3-methylene-6-phenyl-hexyl)-4-hydroxy-6,7-bis-octanoyloxy-2,8-dioxa-bicyclo[3.2.1]octane-3,4,5-tricarboxylic acid]: over 200 nM. `C=C(CC[C@]12O[C@H](C(=O)O)[C@@](O)(C(=O)O)[C@](C(=O)O)(O1)[C@H](OC(=O)CCCCCCc1ccccc1)[C@H]2O)[C@@H](OC(C)=O)[C@H](C)Cc1ccccc1` [(1S,3S,4S,5R,6R,7R)-1-((4S,5R)-4-Acetoxy-5-methyl-3-methylene-6-phenyl-hexyl)-4,7-dihydroxy-6-(7-phenyl-heptanoyloxy)-2,8-dioxa-bicyclo[3.2.1]octane-3,4,5-tricarboxylic acid] returned an IC50 of 7 nM. The same measure for `C=C(CC[C@]12O[C@H](C(=O)O)[C@@](O)(C(=O)O)[C@](C(=O)O)(O1)[C@H](OC(=O)OCCCC)[C@H]2O)[C@@H](OC(C)=O)[C@H](C)Cc1ccccc1` [(1S,3S,4S,5R,6R,7R)-1-((4S,5R)-4-Acetoxy-5-methyl-3-methylene-6-phenyl-hexyl)-6-butoxycarbonyloxy-4,7-dihydroxy-2,8-dioxa-bicyclo[3.2.1]octane-3,4,5-tricarboxylic acid]: 8 nM; for `C=C(CC[C@]12O[C@H](C(=O)O)[C@@](O)(C(=O)O)[C@](C(=O)O)(O1)[C@H](OC(=O)/C=C/c1ccccc1)[C@H]2O)[C@@H](OC(C)=O)[C@H](C)Cc1ccccc1` [(1S,3S,4S,5R,6R,7R)-1-((4S,5R)-4-Acetoxy-5-methyl-3-methylene-6-phenyl-hexyl)-4,7-dihydroxy-6-[(E)-(3-phenyl-acryloyl)oxy]-2,8-dioxa-bicyclo[3.2.1]octane-3,4,5-tricarboxylic acid]: 10 nM.

`C=C(CC[C@]12O[C@H](C(=O)O)[C@@](O)(C(=O)O)[C@](C(=O)O)(O1)[C@H](O)[C@H]2OC(C)=O)[C@@H](OC(C)=O)[C@H](C)Cc1ccccc1` [(1S,3S,4S,5R,6R,7R)-7-Acetoxy-1-((4S,5R)-4-acetoxy-5-methyl-3-methylene-6-phenyl-hexyl)-4,6-dihydroxy-2,8-dioxa-bicyclo[3.2.1]octane-3,4,5-tricarboxylic acid]: the IC50 is over 200 nM.

The molecule `C=C(CC[C@]12O[C@H](C(=O)O)[C@@](O)(C(=O)O)[C@](C(=O)O)(O1)[C@H](O)[C@H]2OC(=O)OC)[C@@H](OC(C)=O)[C@H](C)Cc1ccccc1` [(1S,3S,4S,5R,6R,7R)-1-((4S,5R)-4-Acetoxy-5-methyl-3-methylene-6-phenyl-hexyl)-4,6-dihydroxy-7-methoxycarbonyloxy-2,8-dioxa-bicyclo[3.2.1]octane-3,4,5-tricarboxylic acid] had a 50% inhibitory concentration (IC50) of over 200 nM.

In turn, `C=C(CC[C@]12O[C@H](C(=O)O)[C@@](O)(C(=O)O)[C@](C(=O)O)(O1)[C@H](OC(=O)OCCCCCCCCC)[C@H]2O)[C@@H](OC(C)=O)[C@H](C)Cc1ccccc1` [(1S,3S,4S,5R,6R,7R)-1-((4S,5R)-4-Acetoxy-5-methyl-3-methylene-6-phenyl-hexyl)-4,7-dihydroxy-6-nonyloxycarbonyloxy-2,8-dioxa-bicyclo[3.2.1]octane-3,4,5-tricarboxylic acid] showed an IC50 of 2 nM.

The values are drawn from BindingDB's records for doi:10.1016/S0960-894X(01)80724-1 (1993).
